Values quoted from earlier work as cited in US11877989B2, “Nutritional supplement containing L-α-glycerophosphorylcholine” (Energy Beverages LLC, priority 2020, dated 2024).

How the values were obtained:
[1] = test system: subjects; settings: in vivo
[2] = six weeks of supplementation
[3] = in vivo and in vitro assays
[4] = single intramuscular dose
[5] = test system: healthy male subjects; settings: 1000 mg ingested, 60 min after taking
[6] = test system: subjects; settings: 600 mg per day, after 6 days
[7] = test system: subjects
[8] = dose of 6 mg/kg
[9] = test system: amnesia caused by scopolamine; settings: oral
[10] = test system: patients after stroke or transient ischemic attacks; settings: 1000 mg daily for 28 days, then 400 mg three times per day for 5 months
[11] = test system: rats
[12] = test system: mice
[13] = test system: rats; settings: up to 1000 mg/kg/day
[14] = test system: beagles; settings: up to 300 mg/kg/day

Compound: CC(C)C[C@H](NC(=O)CN(C)C(=N)N)C(=O)O [Creatyl-L-leucine, creatyl-L-leucine]
- solubility relative to creatine and L-leucine: more soluble than either creatine or L-leucine

Compound: CCNC(=O)CC[C@H](N)C(=O)O [L-theanine, N^5-ethyl-L-glutamine]
- cognitive function, including verbal fluency, versus placebo [1]: improved

Compound: C[N+](C)(C)CC(=O)[O-] [trimethylglycine]
- effects of supplementation on body composition, arm size, bench press work capacity and urinary HCTL [2]: improve body composition, arm size, and bench press work capacity, and to attenuate the rise in urinary homocysteine thiolactone (HCTL)

Compound: L-α-glycerophosphorylcholine [α-GPC]
- mutagenic activity [3]: devoid of mutagenic activity
- return of plasma choline concentration to baseline [4]: returned to near baseline values over a six hour period
- time of peak plasma choline levels [4]: within about half an hour after the injection
- plasma growth hormone secretion versus placebo [5]: increased significantly
- lower body force production [6]: increased lower body force production
- peak bench press force, greater ([7]; 600 mg): 14%
- increase of peak growth hormone levels ([7]; 600 mg single dose): 44 fold
- peak growth hormone level after supplementation ([7]; 600 mg single dose): 8.4 ± 2.1 ng/mL
- peak growth hormone level before supplementation ([7]; 600 mg single dose, starting value): 0.19 ± 0.06 ng/mL
- improvement of accuracy during a reaction-time test [8]: 12%
- increase of upper body power output [8]: 12%
- effect on amnesia caused by scopolamine in passive avoidance [9]: reverses amnesia
- dose of peak effect ([9]; 5 h before training): 600 mg/kg
- cognitive recovery [10]: assists in the cognitive recovery
- oral LD50 [11]: ≥ 10,000 mg/kg
- oral LD50 [12]: ≥ 10,000 mg/kg
- symptomology in sub-chronic and chronic oral toxicity studies [13]: reduced activity; slight decreases in food consumption and body weight gain; and slight reduction in liver weight
- symptomology in sub-chronic and chronic oral toxicity studies [14]: reduced activity; slight decreases in food consumption and body weight gain; and slight reduction in liver weight
